IC50 data for 7 compounds are collected here from patent publication US20240417486A1, “ASYMMETRIC BIS-BENZIMIDAZOLE STING AGONIST IMMUNOCONJUGATES AND USES THEREOF” (BOLT BIOTHERAPEUTICS, INC., priority 2021, published 2024).

Usually IC50 stands for the point on the concentration scale where inhibition reaches its midpoint. A low value points to higher potency.

Sequence of human STING WT (6His-tagged STING protein) (Q86WV6 whole entry): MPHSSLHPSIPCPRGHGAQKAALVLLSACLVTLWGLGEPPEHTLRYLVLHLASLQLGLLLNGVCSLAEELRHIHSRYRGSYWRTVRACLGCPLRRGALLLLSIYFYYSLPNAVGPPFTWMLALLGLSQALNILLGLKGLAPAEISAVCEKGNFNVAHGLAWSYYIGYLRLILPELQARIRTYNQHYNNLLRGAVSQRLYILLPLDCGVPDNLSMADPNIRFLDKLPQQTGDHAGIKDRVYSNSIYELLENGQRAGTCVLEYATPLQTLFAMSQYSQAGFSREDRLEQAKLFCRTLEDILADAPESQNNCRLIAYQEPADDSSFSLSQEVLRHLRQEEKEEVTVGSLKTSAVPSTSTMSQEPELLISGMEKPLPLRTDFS

For the test, the target named is human STING WT (6His-tagged STING protein) (Homo sapiens (Human), UniProt Q86WV6). The test can be described thus: HTRF binding assay (STING binding assay). The note with it: inhibition of d2-labeled 2',3'-cGAMP binding to 6His-tagged STING. On the procedure:
Example 202 HTRF Binding Assay
Asymmetric bis-benzimidazole compounds (BBI) of the invention were assessed in a biochemical homogeneous time resolved fluorescence (HTRF) binding assay adapted from the human STING WT binding assay (“HTRF, A guide to Homogeneous Time Resolved Fluorescence”, (2021) PerkinElmer Cisbio; Mathis, G. Clinical Chemistry, 41(9):1391-1397). Briefly, 6His-tagged STING protein was incubated with terbium cryptate-labeled anti-6His antibody, d2-labeled 2′,3′-cGAMP, and varying concentrations of test articles in a 384-well plate format. Donor and acceptor emission signals were measured for each well by plate reader at […], respectively, and the ratio of the signals used to calculate percent inhibition of d2-labeled 2′,3′-cGAMP, cyclic dinucleotide binding.
A general note: In TR-FRET formats the signal depends on donor and acceptor labels being close together.
`CCn1nc(C)cc1C(=O)Nc1nc2cc(C(N)=O)cc(OCCCn3c(NC(=O)c4cc(C)nn4CC)nc4cc(C(N)=O)cc(OC)c43)c2n1C` [BBI-1, 1-(3-((5-carbamoyl-2-(1-ethyl-3-methyl-1H-pyrazole-5-carboxamido)-1-methyl-1H-benzo[d]imidazol-7-yl)oxy)propyl)-2-(1-ethyl-3-methyl-1H-pyrazole-5-carboxamido)-7-methoxy-1H-benzo[d]imidazole-5-carboxamide] registered a half-maximal inhibitory concentration (IC50) of 0.057 µM. This counts as double-digit nanomolar.

The compound `CCn1nc(C)cc1C(=O)Nc1nc2cc(C(N)=O)cc(OCCCCn3c(NC(=O)c4cc(C)nn4CC)nc4cc(C(N)=O)cc(OC)c43)c2n1C` [BBI-2, 1-[4-[6-carbamoyl-2-[(2-ethyl-5-methyl-pyrazole-3-carbonyl)amino]-3-methyl-benzimidazol-4-yl]oxybutyl]-2-[(2-ethyl-5-methyl-pyrazole-3-carbonyl)amino]-7-methoxy-benzimidazole-5-carboxamide] returned an IC50 of 0.073 µM.

`CCn1nc(C)cc1C(=O)Nc1nc2cc(C(N)=O)cc(OCCCCn3c(NC(=O)c4cc(C)nn4CC)nc4cc(C(N)=O)cc(OCCCN5CCNCC5)c43)c2n1C` [BBI-3, 1-(4-((5-carbamoyl-2-(1-ethyl-3-methyl-1H-pyrazole-5-carboxamido)-1-methyl-1H-benzo[d]imidazol-7-yl)oxy)butyl)-2-(1-ethyl-3-methyl-1H-pyrazole-5-carboxamido)-7-(3-(piperazin-1-yl)propoxy)-1H-benzo[d]imidazole-5-carboxamide] came in with an IC50 of 0.25 µM. Against the preceding compound, the IC50 is about 3.4-fold higher.

Consider `CCn1nc(C)cc1C(=O)Nc1nc2cc(C(N)=O)cc(OCCCn3c(NC(=O)c4cc(C)nn4CC)nc4cc(C(N)=O)ccc43)c2n1C` [BBI-4], for which the IC50 was found to be 0.44 µM. This IC50 lies about 1.8-fold higher than the previous one.

`CCn1nc(C)cc1C(=O)Nc1nc2cc(C(N)=O)cc(OCCn3c(NC(=O)c4cc(C)nn4CC)nc4cc(C(N)=O)cc(OC)c43)c2n1C` [BBI-5] came in with an IC50 of 0.21 µM.

`CCn1nc(C)cc1C(=O)Nc1nc2cc(C(N)=O)cc(OCCCn3c(NC(=O)c4cc(C)nn4CC)nc4cc(C(N)=O)cc(OCCCN5CCNCC5)c43)c2n1C` [BBI-6] yielded an IC50 of 0.051 µM.

For the compound `CCn1nc(C)cc1C(=O)Nc1nc2cc(C(N)=O)cc(OC/C=C/Cn3c(NC(=O)c4cc(C)nn4CC)nc4cc(C(N)=O)cc(OCCCN5CCNCC5)c43)c2n1C` [BBI-7], the IC50 was determined as 0.15 µM.
